The experiment addresses T1, Carbonic anhydrase (Candida albicans (strain SC5314 / ATCC MYA-2876) (Yeast), UniProt Q5AJ71).
T1 sequence (Q5AJ71 whole entry): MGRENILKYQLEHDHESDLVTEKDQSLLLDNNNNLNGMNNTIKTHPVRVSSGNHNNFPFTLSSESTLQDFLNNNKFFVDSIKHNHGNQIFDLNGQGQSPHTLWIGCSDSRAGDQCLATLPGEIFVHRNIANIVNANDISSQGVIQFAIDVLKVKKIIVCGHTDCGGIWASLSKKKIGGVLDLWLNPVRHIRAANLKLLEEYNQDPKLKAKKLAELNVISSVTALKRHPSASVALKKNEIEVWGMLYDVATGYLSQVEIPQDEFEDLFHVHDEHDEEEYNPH
Usually Ki stands for the equilibrium dissociation constant of an inhibitor or competing ligand from its target. Low values mean tighter binding, high ones weaker binding. With `Nc1ccc(S(=O)(=O)NCc2ccc(S(N)(=O)=O)cc2)cc1`, the affinity corresponds to a Ki of 1310 nM. This lies in the single-digit micromolar range. In the case of `Nc1cc(Cl)c(S(N)(=O)=O)cc1S(N)(=O)=O`, the Ki stood at 874 nM.

`Nc1ccc(S(=O)(=O)Nc2nnc(S(N)(=O)=O)s2)cc1` registered a Ki of 1090 nM. `NS(=O)(=O)c1nnc(-c2ccccc2Cl)s1` gave a Ki of 1290 nM.

In turn, `Nc1nccc(Nc2ccc(S(N)(=O)=O)cc2)n1` had a Ki of 1110 nM. Compound `Nc1ccc(S(N)(=O)=O)cc1Br` returned a Ki of 408 nM. Consider `Cn1nc(S(N)(=O)=O)sc1=N`, for which the Ki is 1370 nM. The compound `NS(=O)(=O)c1ccc(CCO)cc1` returned a Ki of 1210 nM. The figure for `Nc1ccc(S(N)(=O)=O)cc1F` is 1240 nM; for `NS(=O)(=O)c1ccc(CO)cc1` it is 383 nM.

Compound `NCCc1ccc(S(N)(=O)=O)cc1` had a Ki of 3200 nM. Consider `Nc1ccc(S(N)(=O)=O)cc1Cl`, for which the Ki worked out at 1340 nM. Consider `Nc1ccc(S(=O)(=O)NCCc2ccc(S(N)(=O)=O)cc2)cc1`, for which the Ki is 727 nM. Compound `Nc1cc(C(F)(F)F)c(S(N)(=O)=O)cc1S(N)(=O)=O` [2,4-DISULFAMYLTRIFLUOROMETHYLANILINE] showed a Ki of 6110 nM. `NS(=O)(=O)c1nnc(NS(=O)(=O)c2ccccc2)s1` [BENZOLAMIDE] had a Ki of 1510 nM. `CCN[C@H]1CN(CCCOC)S(=O)(=O)c2sc(S(N)(=O)=O)cc21` [BRINZOLAMIDE] displayed a Ki of 1100 nM. In turn, `NS(=O)(=O)c1ccc(C(=O)O)cc1` [CARZENIDE] had a Ki of 861 nM.

Take `Cc1ccc(-c2cc(C(F)(F)F)nn2-c2ccc(S(N)(=O)=O)cc2)cc1` [CELECOXIB]: the Ki worked out at 1020 nM. In the case of `NCc1ccc(S(N)(=O)=O)cc1` [MAFENIDE], the inhibition constant (Ki) was found to be 1110 nM. `O=C1NS(=O)(=O)c2ccccc21` [SACCHARIN] gave a Ki of 736 nM.

`Nc1ccc(S(N)(=O)=O)cc1` [SULFANILAMIDE] gave a Ki of 7630 nM. `CC1(C)O[C@@H]2[C@@H](CO[C@@]3(COS(N)(=O)=O)OC(C)(C)O[C@@H]23)O1` [TOPIRAMATE]: the affinity, expressed as Ki, was 1110 nM. Against the preceding compound, the Ki is about 6.9-fold lower.

(Values after ChEMBL document CHEMBL1152937, “Carbonic anhydrase inhibitors. Inhibition and homology modeling studies of the fungal beta-carbonic anhydrase from Candida albicans with sulfonamides” (Bioorg Med Chem, 2009).)
